Values quoted from earlier work in patent US4886800A, “Substituted cinnoline derivatives as CNS depressants” (ICI Americas Inc., priority 1985, dated 1989).

Tested on: specific [3H]flunitrazepam binding, lysed mitochondrial-synaptosomal (P2) fraction of cerebral cortex
Conditions: reference behaviour stated in the description of the test

SMILES | effect on flunitrazepam binding
CCCCNc1c(C(=O)OCC)c(C)nc2c1cnn2CC [tracazolate] | enchancement of the binding
CCCCNc1c(C(=O)OCC)cnc2c1cnn2CC [cartazolate] | enchancement of the binding
